Measured values reported in publication PMC3340383, “Synthesis and Evaluation of a Series of 2-Substituted-5-Thiopropylpiperazine (Piperidine)-1,3,4-Oxadiazoles Derivatives as Atypical Antipsychotics” (PLoS ONE, 2012).
Marks after values point to notes of the source that are not given here.

Key:
[1] = test system: MK-801-induced hyperactivity in mice; test: MK-801-induced hyperactivity; details: mice, po; 95% confidence limits in parentheses
[2] = molecular target: T1, dopamine D3 receptor (Rattus norvegicus, UniProt P19020); test: D3 dopaminergic binding assay ([3H]spiperone, rat olfactory tubercle); details: mean of three experiments, read-out: Ki±SEM, D3
T1 construct: Rat olfactory tubercle was homogenized in 20 volumes of ice-cold 50 mM Hepes Na; from tissue; host or cells: rat olfactory tubercle
Description: (§1) All the new compounds were dissolved in 5% DMSO. The following specific radioligands and tissue sources were used: (a) serotonin 5-HT1A receptor, [^3H]8-OH-DPAT, rat brain cortex; (b) serotonin 5-HT2A receptor, [^3H]ketanserin, rat brain cortex; (c) serotonin 5-HT2C receptor, [^3H]mesulergine, rat brain cortex; (d) dopamine D2 receptor, [^3H]spiperone, rat striatum; (e) dopamine D3 receptor, [^3H]spiperone, rat olfactory tubercle (f) histamine H1 receptor, [^3H] pyrilamine, guinea pig cerebellum.
(§2) Total binding was determined in the absence of no-specific binding and compounds. Specific binding was determined in the presence of compounds. Non-specific binding was determined as the difference between total and specific binding.
(§3) Percentage of inhibition (%) = (total binding − specific binding)×100%/(total binding − nonspecific binding).
(§4) Ki values were calculated based on the Cheng and Prussoff equation: Ki = IC50/(1+C/Kd) where C represents the concentration of the hot ligand used and Kd its receptor dissociation constant were calculated for each labeled ligand. Mean Ki values and SEM were reported for at least three independent experiments.
(§5) The incubation was followed by a rapid vacuum filtration through Whatman GF/B glass filters, and the filtrates were washed twice with 5 mL cold buffer and transferred to scintillation vials. Scintillation fluid (3.0 mL) was added and the radioactivity bound was measured using a Beckman LS 6500 liquid scintillation counter.

[3] = test system: apomorphine-induced climbing behavior in mice; test: Apomorphine-induced climbing; format: in vivo; details: mice, po; 95% confidence limits in parentheses
Description: . […] . Animals were then challenged at 30 minutes post-injection with 1.0 mg/kg of the apomorphine in 0.9% NaCl+0.1% ascorbic acid, placed in cylindrical wire cages (12 cm in diameter, 14 cm in height), and observed for climbing behavior at 10, 20 and 30 min post dose. The climbing behaviour was scored as follows: 3–4 paws on the cage floor = 0 score; 2 and 3 paws on the cage = 1 score; 4 paws on the cage = 2 score.

[4] = molecular target: T2, serotonin 5-HT2C receptor (Rattus norvegicus, UniProt P08909); test: 5-HT2C binding assay ([3H]mesulergine, rat brain cortex); details: mean of three experiments, read-out: Ki±SEM, 5HT2C
T2 construct: Rat cerebral cortex was homogenized in 20 volumes of ice-cold Tris-HCl buffer; from tissue; host or cells: rat brain (cerebral) cortex
T2 sequence (P08909 33-460): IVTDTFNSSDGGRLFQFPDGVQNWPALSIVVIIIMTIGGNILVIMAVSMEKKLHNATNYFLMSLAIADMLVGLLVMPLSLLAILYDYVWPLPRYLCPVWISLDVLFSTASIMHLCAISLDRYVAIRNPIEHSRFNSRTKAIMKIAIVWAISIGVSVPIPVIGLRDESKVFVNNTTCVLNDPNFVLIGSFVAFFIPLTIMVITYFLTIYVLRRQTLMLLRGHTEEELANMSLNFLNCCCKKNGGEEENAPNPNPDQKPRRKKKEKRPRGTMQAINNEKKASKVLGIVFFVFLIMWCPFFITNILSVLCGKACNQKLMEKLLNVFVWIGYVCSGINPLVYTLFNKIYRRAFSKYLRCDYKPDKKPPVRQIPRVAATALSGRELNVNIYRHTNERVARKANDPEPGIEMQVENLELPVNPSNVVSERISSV
Description: as §1
Total binding was determined in the absence of no-specific binding and compounds. Specific binding was determined in the presence of compounds. Non-specific binding was determined as the difference between total and specific binding. […]
Ki values were calculated based on the Cheng and Prussoff equation: Ki = IC50/(1+C/Kd) where C represents the concentration of the hot ligand used and Kd its receptor dissociation constant were calculated for each labeled ligand. […]
The resulting pellet was resuspended in the same quantity of the buffer centrifuged for 20 min. […]
as §5

[5] = molecular target: T3, dopamine D2 receptor (Rattus norvegicus, UniProt P61169); test: D2 dopaminergic binding assay ([3H]spiperone, rat striatum); details: [3H]spiperone, rat striatum; mean of three experiments; >10000 marked b: Ki not calculated, inhibition at 10 µM too low; read-out: Ki±SEM, D2
T3 construct: Rat striatum was homogenized in 20 volumes of ice-cold 50 mM Tris-HCl buffer; from tissue; host or cells: rat striatum
Description: as §1, §2, §3, §4
Rat striatum was homogenized in 20 volumes of ice-cold 50 mM Tris-HCl buffer (pH 7.7) using an ULTRA TURAX homogeniser, and centrifuged twice for 10 min at 48,000 g with resuspension of the pellet in fresh buffer. The final pellet was resuspended in 50 mM ice-cold Tris-HCl containing 120 mM NaCl, 5 mM KCl, 2 mM CaCl2, 1 mM MgCl2, 0.1% ascorbic acid and 5 µM pargyline.
Total binding each assay tube was added 900 µL of the tissue suspension, 50 µL of 0.5 nM [^3H]spiperone (16.2 Ci/mmol; Perkin Elmer Life Sciences, Boston, MA, USA), 50 µL Tris-HCl buffer containing 120 mM NaCl, 5 mM KCl, 2 mM CaCl2, 1 mM MgCl2, 0.1% ascorbic acid and 5 µM pargyline.
Non-specific binding each assay tube was added 900 µL of the tissue suspension, 50 µL of 0.5 nM [^3H]spiperone, 50 µL of 10 µM (+)-butaclamol.
Specific binding each assay tube was added 900 µL of the tissue suspension, 50 µL of 0.5 nM [^3H]spiperone, 50 µL of new compounds or reference drug.
as §5

[6] = molecular target: T4, histamine H1 receptor (Cavia porcellus, UniProt P31389); test: Histamine H1 binding assay ([3H]pyrilamine, guinea pig cerebellum); details: [3H]pyrilamine, guinea pig cerebellum; mean of three experiments; >10000 marked b: Ki not calculated, inhibition at 10 µM too low; read-out: Ki±SEM, H1
T4 construct: Guinea pig cerebellum was homogenized in 20 volumes of ice-cold 50 mM phosphate buffer; from tissue; host or cells: guinea pig cerebellum
Description: as §1, §2, §3, §4, §5

[7] = test system: catalepsy in mice; test: Catalepsy test (horizontal bar); details: po
[8] = molecular target: T5, serotonin 5-HT2A receptor (Rattus norvegicus, UniProt P14842); test: 5-HT2A binding assay ([3H]ketanserin, rat brain cortex); details: [3H]ketanserin, rat brain cortex; mean of three experiments; >10000 marked b: Ki not calculated, inhibition at 10 µM too low; read-out: Ki±SEM, 5HT2A
T5 construct: Rat cerebral cortex was homogenized in 20 volumes of ice-cold Tris-HCl buffer; from tissue; host or cells: rat brain (cerebral) cortex
Description: as §1, §2, §3, §4
Rat cerebral cortex was homogenized in 20 volumes of ice-cold Tris-HCl buffer (50 mM, pH 7.7) using an ULTRA TURAX homogeniser, and centrifuged at 32000 g for 20 min. The resulting pellet was resuspended in the same quantity of the buffer centrifuged for 20 min. The final pellet was resuspended in 50 volumes of the Tris-HCl buffer.
Total binding each assay tube was added 900 µL of the tissue suspension, 50 µL of 0.6 nM [^3H]ketanserin (60.0 Ci/mmol, Perkin Elmer Life Sciences, Boston, MA, USA), 50 µL Tris-HCl buffer.
Non-specific binding each assay tube was added 900 µL of the tissue suspension, 50 µL of 0.6 nM [^3H]ketanserin, 50 µL of 10 µM methisergide.
Specific binding each assay tube was added 900 µL of the tissue suspension, 50 µL of 0.6 nM [^3H]ketanserin, […] of new compounds or reference drug.
as §5

T4 sequence (P31389 whole entry): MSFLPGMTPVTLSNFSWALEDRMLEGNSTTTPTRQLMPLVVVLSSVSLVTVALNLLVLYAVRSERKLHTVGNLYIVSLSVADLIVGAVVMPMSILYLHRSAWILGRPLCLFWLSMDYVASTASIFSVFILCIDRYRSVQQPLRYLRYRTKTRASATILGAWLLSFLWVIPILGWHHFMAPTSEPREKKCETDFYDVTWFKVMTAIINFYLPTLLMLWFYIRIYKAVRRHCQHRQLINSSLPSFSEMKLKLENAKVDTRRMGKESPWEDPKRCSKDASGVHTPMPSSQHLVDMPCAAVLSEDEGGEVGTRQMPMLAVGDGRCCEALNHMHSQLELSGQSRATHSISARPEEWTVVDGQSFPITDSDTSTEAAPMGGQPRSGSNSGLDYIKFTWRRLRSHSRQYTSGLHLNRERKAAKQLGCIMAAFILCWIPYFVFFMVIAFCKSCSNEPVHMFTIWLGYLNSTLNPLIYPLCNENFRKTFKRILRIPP
T1 sequence (P19020 whole entry): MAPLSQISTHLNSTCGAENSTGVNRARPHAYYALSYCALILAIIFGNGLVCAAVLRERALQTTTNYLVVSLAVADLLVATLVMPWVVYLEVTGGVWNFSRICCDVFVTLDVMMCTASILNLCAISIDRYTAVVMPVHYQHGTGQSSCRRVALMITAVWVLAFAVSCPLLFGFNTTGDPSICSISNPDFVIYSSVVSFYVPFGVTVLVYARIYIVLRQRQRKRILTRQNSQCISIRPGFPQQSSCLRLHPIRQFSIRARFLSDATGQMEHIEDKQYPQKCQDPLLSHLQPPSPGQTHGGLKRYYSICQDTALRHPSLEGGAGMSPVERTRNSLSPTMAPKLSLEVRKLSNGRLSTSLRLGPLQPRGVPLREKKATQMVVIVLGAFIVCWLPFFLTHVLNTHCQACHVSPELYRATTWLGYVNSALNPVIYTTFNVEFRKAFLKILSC
T3 sequence (P61169 whole entry): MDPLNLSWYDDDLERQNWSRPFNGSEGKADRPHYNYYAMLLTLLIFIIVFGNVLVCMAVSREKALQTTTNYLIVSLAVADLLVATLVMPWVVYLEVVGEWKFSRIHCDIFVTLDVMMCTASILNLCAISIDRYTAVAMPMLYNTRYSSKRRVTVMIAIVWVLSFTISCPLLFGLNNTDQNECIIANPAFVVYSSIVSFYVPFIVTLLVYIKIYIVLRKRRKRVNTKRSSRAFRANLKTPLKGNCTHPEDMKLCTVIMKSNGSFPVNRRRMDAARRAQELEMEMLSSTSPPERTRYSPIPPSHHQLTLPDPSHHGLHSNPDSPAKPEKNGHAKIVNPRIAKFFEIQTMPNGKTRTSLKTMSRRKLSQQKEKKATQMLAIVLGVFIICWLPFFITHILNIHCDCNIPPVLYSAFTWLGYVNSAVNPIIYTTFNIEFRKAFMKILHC
T5 sequence (P14842 whole entry): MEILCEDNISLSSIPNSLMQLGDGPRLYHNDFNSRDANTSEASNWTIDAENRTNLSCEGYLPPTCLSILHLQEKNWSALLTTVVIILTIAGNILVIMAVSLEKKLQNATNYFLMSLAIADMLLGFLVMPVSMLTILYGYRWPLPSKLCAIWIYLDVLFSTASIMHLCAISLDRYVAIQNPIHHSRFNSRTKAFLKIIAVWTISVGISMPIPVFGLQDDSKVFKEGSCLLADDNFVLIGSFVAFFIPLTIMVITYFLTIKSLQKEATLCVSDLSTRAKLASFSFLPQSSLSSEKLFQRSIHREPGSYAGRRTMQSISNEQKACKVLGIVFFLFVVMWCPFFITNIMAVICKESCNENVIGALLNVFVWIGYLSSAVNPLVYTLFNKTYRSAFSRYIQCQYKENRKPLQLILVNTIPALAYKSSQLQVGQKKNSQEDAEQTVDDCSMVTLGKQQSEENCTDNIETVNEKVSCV

Fc1ccc2c(C3CCN(CCCSc4nnc(-c5cccc6ccccc56)o4)CC3)noc2c1 [Compound 22, 2-(3-(4-(6-fluorobenzo[d]isoxazol-3-yl)piperidin-1-yl)propylthio)-5-(naphthalen-1-yl)-1,3,4-oxadiazole]
MK-801-induced hyperactivity ED50 (B) [1]: 3.58 (2.59–8.28) mg/kg
Ki [2]: 7.7 ± 0.6 nM
Apomorphine-induced climbing ED50 (A) [3]: 3.68 (2.79–4.86) ^a mg/kg
Ki [4]: 861 ± 86.2 nM
Ki [5]: 23 ± 2.6 nM
Ki [6]: > 10 µM
CAT (catalepsy) ED50 (C) [7]: >300 mg/kg
Ki [8]: 1.1 ± 0.1 nM
